The record followed here is patent US20130164226A1, “FOAMABLE AEROSOL COMPOSITION” (DAIZO CORPORATION, priority 2010, published 2013).

The data set can be described thus: Solubility of the liquefied gas in water. The conditions noted are these: at 20° C. The format is physicochemical. Here is the method:
In the present invention, the liquefied gas to be blended is characterized by being a poorly water-soluble liquefied gas having solubility in water at 20° C. of less than 10 wt %, preferably less than 5 wt %. When the solubility of the liquefied gas in water is more than 10 wt %, the liquefied gas is hardly emulsified with the concentrate and emulsification stability is apt to be lowered, and therefore, a uniform composition tends to be hardly sprayed. In addition, in the case of blending a gas mixture as the liquefied gas, it is enough for the gas mixture to have properties corresponding to those of a poorly water-soluble liquefied gas.

Consider `COC` [dimethyl ether (*17), dimethyl ether], for which the solubility in water is reported as 33 wt %.
For the compound `F/C=C/C(F)(F)F` [trans-1,3,3,3-tetrafluoroprop-1-ene], the solubility in water is not above 1 wt %.
